For seven compounds, MIC results are on record in ChEMBL document CHEMBL1144019 (Bioorg Med Chem, 2008).

≈ marks a conversion by molar mass, not a printed value.

Format in all cases: functional
Test [1] deals with Enterobacter cloacae. As to the kind of experiment: Antibacterial activity against AmpC producing Enterobacter cloacae SR-4321 by standard serial agar dilution method. In general terms: Agar dilution tests growth on a series of plates holding different concentrations.
Another test has as its system Moraxella catarrhalis. Description: Antibacterial activity against Moraxella catarrhalis ATCC 43617 by standard serial agar dilution method.
The subject of another test is Streptococcus pneumoniae. As to the kind of experiment: Antibacterial activity against penicillin-resistant Streptococcus pneumoniae SR-16675 by standard serial agar dilution method.
Test [2] has as its system Pseudomonas aeruginosa. As to the kind of experiment: Antibacterial activity against Pseudomonas aeruginosa SR-5393 by standard serial agar dilution method.
Test [3] has as its system Enterobacter cloacae. As to the kind of experiment: Antibacterial activity against Enterobacter cloacae ATCC 13047 by standard serial agar dilution method.
Test [4] deals with Haemophilus influenzae. Description: Antibacterial activity against Haemophilus influenzae ATCC 49766 by standard serial agar dilution method.
The test system of the next test is Staphylococcus aureus. Description: Antibacterial activity against Staphylococcus aureus Smith by standard serial agar dilution method.
Test [5] has as its system Pseudomonas aeruginosa. As to the kind of experiment: Antibacterial activity against Pseudomonas aeruginosa SR24 by standard serial agar dilution method.
The subject of test [6] is Pseudomonas aeruginosa. As to the kind of experiment: Antibacterial activity against imipenem-resistant Pseudomonas aeruginosa SR-6554 by standard serial agar dilution method.
For test [7], the system named is Pseudomonas aeruginosa. As to the kind of experiment: Antibacterial activity against AmpC hyperproducing Pseudomonas aeruginosa SR24-12 by standard serial agar dilution method.
The test system of test [8] is Haemophilus influenzae. Description: Antibacterial activity against beta-lactamase negative ampicillin-resistant Haemophilus influenzae SR-11435 by standard serial agar dilution method.
The test system of test [9] is Escherichia coli. Description: Antibacterial activity against Toho 2 producing Escherichia coli by standard serial agar dilution method.
The subject of test [10] is Escherichia coli. Description: Antibacterial activity against Escherichia coli SR-21003 by standard serial agar dilution method.

As to `C[C@H](O/N=C(\C(=O)N[C@@H]1C(=O)N2C(C(=O)[O-])=C(C[n+]3cccc4c3ccn4CCNS(N)(=O)=O)CS[C@H]12)c1nc(N)sc1Cl)C(=O)O`, the MIC in the test on Enterobacter cloacae [1] was found to be 4 mg/L (≈ 5.49 µM); against Moraxella catarrhalis, 0.016 mg/L (≈ 0.022 µM); with Streptococcus pneumoniae, 2 mg/L (≈ 2.75 µM); in the test with Pseudomonas aeruginosa [2] it was 4 mg/L (≈ 5.49 µM); in the test on Enterobacter cloacae [3] it was 0.5 mg/L (≈ 0.687 µM); against Haemophilus influenzae [4], 0.032 mg/L (≈ 0.0439 µM). For the same compound, the MIC with Staphylococcus aureus amounted to 2 mg/L (≈ 2.75 µM); in the test on Pseudomonas aeruginosa [5], 1 mg/L (≈ 1.37 µM); in the test on Pseudomonas aeruginosa [6], 8 mg/L (≈ 11 µM); against Pseudomonas aeruginosa [7], 4 mg/L (≈ 5.49 µM); against Haemophilus influenzae [8] it was 0.063 mg/L (≈ 0.0865 µM); in the test with Escherichia coli [9] it was 2 mg/L (≈ 2.75 µM). In the test with Escherichia coli [10], this compound yielded an MIC of 0.25 mg/L (≈ 0.343 µM).

As to `CNCCn1ncc2c1ccc[n+]2CC1=C(C(=O)[O-])N2C(=O)[C@@H](NC(=O)/C(=N\O[C@@H](C)C(=O)O)c3nc(N)sc3Cl)[C@H]2SC1`, the MIC against Enterobacter cloacae [1] was determined as 4 mg/L (≈ 6.02 µM); in the test on Moraxella catarrhalis it was 0.032 mg/L (≈ 0.0482 µM); in the test on Streptococcus pneumoniae, 4 mg/L (≈ 6.02 µM); with Pseudomonas aeruginosa [2], 4 mg/L (≈ 6.02 µM); against Enterobacter cloacae [3], 1 mg/L (≈ 1.51 µM); against Haemophilus influenzae [4], 0.125 mg/L (≈ 0.188 µM). Also, the MIC in the test on Staphylococcus aureus was found to be 4 mg/L (≈ 6.02 µM); against Pseudomonas aeruginosa [5], 1 mg/L (≈ 1.51 µM); in the test with Pseudomonas aeruginosa [6], 16 mg/L (≈ 24.1 µM); in the test on Pseudomonas aeruginosa [7] it was 8 mg/L (≈ 12 µM); against Haemophilus influenzae [8] it was 0.125 mg/L (≈ 0.188 µM); in the test with Escherichia coli [9] it was 4 mg/L (≈ 6.02 µM). This compound also returned an MIC in the test with Escherichia coli [10] of 1 mg/L (≈ 1.51 µM).

For the compound `C[C@H](O/N=C(\C(=O)N[C@@H]1C(=O)N2C(C(=O)[O-])=C(C[n+]3cccc4[nH]ccc43)CS[C@H]12)c1nc(N)sc1Cl)C(=O)O`, the MIC was 2 mg/L (≈ 3.3 µM) against Enterobacter cloacae [1]; 0.016 mg/L (≈ 0.0264 µM) against Moraxella catarrhalis; 2 mg/L (≈ 3.3 µM) against Streptococcus pneumoniae; 2 mg/L (≈ 3.3 µM) in the test with Pseudomonas aeruginosa [2]; 0.25 mg/L (≈ 0.413 µM) with Enterobacter cloacae [3]; 0.016 mg/L (≈ 0.0264 µM) against Haemophilus influenzae [4]. The MIC against Staphylococcus aureus is 1 mg/L (≈ 1.65 µM); in the test with Pseudomonas aeruginosa [5], 1 mg/L (≈ 1.65 µM); against Pseudomonas aeruginosa [6], 8 mg/L (≈ 13.2 µM); against Pseudomonas aeruginosa [7], 4 mg/L (≈ 6.6 µM); against Haemophilus influenzae [8] it was 0.032 mg/L (≈ 0.0528 µM); in the test on Escherichia coli [9], 1 mg/L (≈ 1.65 µM). The compound further displayed an MIC with Escherichia coli [10] of 0.25 mg/L (≈ 0.413 µM).

For `CNCCn1ccc2c[n+](CC3=C(C(=O)[O-])N4C(=O)[C@@H](NC(=O)/C(=N\O[C@@H](C)C(=O)O)c5nc(N)sc5Cl)[C@H]4SC3)ccc21`, the MIC against Enterobacter cloacae [1] was 8 mg/L (≈ 12.1 µM); in the test on Moraxella catarrhalis, 0.032 mg/L (≈ 0.0483 µM); against Streptococcus pneumoniae, 4 mg/L (≈ 6.03 µM); against Pseudomonas aeruginosa [2], 2 mg/L (≈ 3.02 µM); with Enterobacter cloacae [3], 0.5 mg/L (≈ 0.754 µM); with Haemophilus influenzae [4], 0.032 mg/L (≈ 0.0483 µM). The MIC in the test with Staphylococcus aureus was found to be 4 mg/L (≈ 6.03 µM); in the test on Pseudomonas aeruginosa [5], 1 mg/L (≈ 1.51 µM); with Pseudomonas aeruginosa [6], 8 mg/L (≈ 12.1 µM); in the test on Pseudomonas aeruginosa [7], 4 mg/L (≈ 6.03 µM); with Haemophilus influenzae [8], 0.125 mg/L (≈ 0.188 µM); in the test with Escherichia coli [9] it was 2 mg/L (≈ 3.02 µM). This compound gave an MIC in the test on Escherichia coli [10] of 0.25 mg/L (≈ 0.377 µM).

On to `C[C@H](O/N=C(\C(=O)N[C@@H]1C(=O)N2C(C(=O)[O-])=C(C[n+]3cccc4c3nc(N)n4C3CCNCC3)CS[C@H]12)c1nc(N)sc1Cl)C(=O)O`, for which the MIC against Enterobacter cloacae [1] was found to be 2 mg/L (≈ 2.84 µM); against Moraxella catarrhalis it was 0.016 mg/L (≈ 0.0227 µM); in the test on Streptococcus pneumoniae, 2 mg/L (≈ 2.84 µM); with Pseudomonas aeruginosa [2], 2 mg/L (≈ 2.84 µM); against Enterobacter cloacae [3], 0.25 mg/L (≈ 0.355 µM); in the test with Haemophilus influenzae [4] it was 0.016 mg/L (≈ 0.0227 µM). The MIC in the test on Staphylococcus aureus was 2 mg/L (≈ 2.84 µM); in the test with Pseudomonas aeruginosa [5] it was 0.5 mg/L (≈ 0.709 µM); against Pseudomonas aeruginosa [6] it was 4 mg/L (≈ 5.67 µM); against Pseudomonas aeruginosa [7], 2 mg/L (≈ 2.84 µM); in the test on Haemophilus influenzae [8], 0.063 mg/L (≈ 0.0893 µM); with Escherichia coli [9] it was 2 mg/L (≈ 2.84 µM). In the test with Escherichia coli [10], this compound gave an MIC of 0.25 mg/L (≈ 0.355 µM).

As to `CNCCn1nnc2c1ccc[n+]2CC1=C(C(=O)[O-])N2C(=O)[C@@H](NC(=O)/C(=N\O[C@@H](C)C(=O)O)c3nc(N)sc3Cl)[C@H]2SC1`, the MIC in the test with Enterobacter cloacae [1] was 8 mg/L (≈ 12 µM); in the test with Moraxella catarrhalis it was 0.032 mg/L (≈ 0.0481 µM); in the test on Streptococcus pneumoniae, 2 mg/L (≈ 3.01 µM); against Pseudomonas aeruginosa [2], 8 mg/L (≈ 12 µM); with Enterobacter cloacae [3], 0.5 mg/L (≈ 0.752 µM); against Haemophilus influenzae [4] it was 0.125 mg/L (≈ 0.188 µM). Moreover, the MIC against Staphylococcus aureus was 4 mg/L (≈ 6.01 µM); with Pseudomonas aeruginosa [5], 2 mg/L (≈ 3.01 µM); against Pseudomonas aeruginosa [6], 64 mg/L (≈ 96.2 µM); in the test on Pseudomonas aeruginosa [7] it was 64 mg/L (≈ 96.2 µM); against Haemophilus influenzae [8], 0.5 mg/L (≈ 0.752 µM); with Escherichia coli [9], 2 mg/L (≈ 3.01 µM). This compound also registered an MIC in the test with Escherichia coli [10] of 0.25 mg/L (≈ 0.376 µM).

For `CNCCCc1cc[n+](CC2=C(C(=O)[O-])N3C(=O)[C@@H](NC(=O)/C(=N\O[C@@H](C)C(=O)O)c4nc(N)sc4Cl)[C@H]3SC2)cc1`, the MIC in the test on Enterobacter cloacae [1] came out at 8 mg/L (≈ 12.5 µM); against Moraxella catarrhalis, 0.032 mg/L (≈ 0.0501 µM); against Streptococcus pneumoniae, 4 mg/L (≈ 6.27 µM); in the test on Pseudomonas aeruginosa [2], 4 mg/L (≈ 6.27 µM); with Enterobacter cloacae [3], 1 mg/L (≈ 1.57 µM); in the test with Haemophilus influenzae [4] it was 0.125 mg/L (≈ 0.196 µM). Also, the MIC in the test on Staphylococcus aureus stood at 8 mg/L (≈ 12.5 µM); in the test with Pseudomonas aeruginosa [5], 1 mg/L (≈ 1.57 µM); against Pseudomonas aeruginosa [6], 16 mg/L (≈ 25.1 µM); with Pseudomonas aeruginosa [7], 8 mg/L (≈ 12.5 µM); with Haemophilus influenzae [8], 0.25 mg/L (≈ 0.392 µM); against Escherichia coli [9], 4 mg/L (≈ 6.27 µM). The compound further showed an MIC against Escherichia coli [10] of 1 mg/L (≈ 1.57 µM).
